Results on 20 compounds are retold here after US8765060B2, “Chemical sensor” (Regents of the University of Minnesota, priority 2005, dated 2014).

Data set [1] is described as follows: physchem.
A short description of data set [2]: Solubility in perfluoro(tributylamine).
Description: To explore the possibility that salts of ionic sites might be more soluble in fluorous phases if their hydrophilic ion were complexed to a receptor, the solubilities of several ion receptors in PFPHP and perfluoro(tributylamine) were tested.
The conditions of data set [3]: cited from earlier work.
The conditions of data set [4]: cited from earlier work. The source holds these as a separate data set.
Data set [5] is described as follows: Extraction of lipophilic acids into fluorous membranes, 1H NMR. Format: physicochemical. The following applies: aqueous buffered solutions of 10^−3.5 M acid; 1H NMR of membrane.
For data set [6] the following is noted: cited from earlier work. This is another data set of the same source.
The conditions of data set [7]: assuming 1:1 stoichiometry; cited from earlier work.
For data set [8] the following is noted: assuming 1:1 stoichiometry; cited from earlier work. This is another data set of the same source.
Where [9] appears, read: PFPHP saturated with substance, salts judged by resistance of soaked porous PTFE membranes.

Like-named read-outs stand apart in the source and are kept apart here.

As for `CCCCCCCCCCCCCCCCCC(=O)N=c1cc2oc3cc(N(CC)CC)ccc3nc-2c2ccccc12` [Chromoionophroes I], the “solubility in PFPHP” value in data set [1] is “poorly soluble”.

Regarding `CC(C)[C@@H]1NC(=O)[C@H](C)OC(=O)[C@@H](C(C)C)NC(=O)[C@@H](C(C)C)OC(=O)[C@H](C(C)C)NC(=O)[C@H](C)OC(=O)[C@@H](C(C)C)NC(=O)[C@@H](C(C)C)OC(=O)[C@H](C(C)C)NC(=O)[C@H](C)OC(=O)[C@@H](C(C)C)NC(=O)[C@@H](C(C)C)OC1=O` [valinomycin], in data set [2], the “solubility in perfluoro(tributylamine)” value was “poorly soluble”. The entries for the “log K^potK,Na” value in data set [3] (after exposure to an extract of urine) and in data set [3] (before exposure to an extract of urine) were −3.1 and −3.9, respectively. Also, the “solubility in PFPHP” value in data set [1] (setting [9]) is listed as “poorly soluble”. What is called solubility is the dissolved amount per volume that the medium holds. `FC(F)(F)C(F)(F)C(F)(F)C(F)(F)C(F)(F)C(F)(F)c1cc([B-](c2cc(C(F)(F)C(F)(F)C(F)(F)C(F)(F)C(F)(F)C(F)(F)F)cc(C(F)(F)C(F)(F)C(F)(F)C(F)(F)C(F)(F)C(F)(F)F)c2)(c2cc(C(F)(F)C(F)(F)C(F)(F)C(F)(F)C(F)(F)C(F)(F)F)cc(C(F)(F)C(F)(F)C(F)(F)C(F)(F)C(F)(F)C(F)(F)F)c2)c2cc(C(F)(F)C(F)(F)C(F)(F)C(F)(F)C(F)(F)C(F)(F)F)cc(C(F)(F)C(F)(F)C(F)(F)C(F)(F)C(F)(F)C(F)(F)F)c2)cc(C(F)(F)C(F)(F)C(F)(F)C(F)(F)C(F)(F)C(F)(F)F)c1.[Na+]` [compound 2]: in data set [1] (organic solvent or mixture), the solubility is 1400 µM.

As to `c1ccc(CSCc2ccccc2)cc1` [dibenzyl sulfide], the “solubility in PFPHP” value in data set [1] was “poorly soluble”.

`CCCCCCCC[N+](CCCCCCCC)(CCCCCCCC)CCCCCCCC.[Cl-]` [tetraoctylammonium chloride]: in data set [4] (in 98.2 toluene-nitrobenzene), the “log Kip” value is reported as 14.9. As for `FC(F)(F)c1cc([B-](c2cc(C(F)(F)F)cc(C(F)(F)F)c2)(c2cc(C(F)(F)F)cc(C(F)(F)F)c2)c2cc(C(F)(F)F)cc(C(F)(F)F)c2)cc(C(F)(F)F)c1.[Na+]`, in data set [1], the “solubility in PFPHP” value is “not soluble enough”. As to `CCCCCCCCCCCC[N+](CCCCCCCCCCCC)(CCCCCCCCCCCC)CCCCCCCCCCCC.Clc1ccc([B-](c2ccc(Cl)cc2)(c2ccc(Cl)cc2)c2ccc(Cl)cc2)cc1` [ETH 500, tetradecylammonim tetrakis[p-chlorophenyl]borate], the “solubility in PFPHP” value in data set [1] (setting [9]) is “not sufficiently soluble”.

Turning to `C[C@H](CCC(=O)O)[C@H]1CC[C@H]2[C@@H]3[C@H](O)C[C@@H]4C[C@H](O)CC[C@]4(C)[C@H]3C[C@H](O)[C@]12C` [cholic acid], in data set [5], the “extraction into fluorous membranes” value is listed as “not extracted to any significant amount”. As to `CCCCCCCCCCCCN(CCCCCCCCCCCC)CCCCCCCCCCCC` [tridodecylamine], the “solubility in PFPHP” value in data set [1] is given as “poorly soluble”. In the case of `CCCCCCCC(=O)O` [octanoic acid], the “extraction into fluorous membranes” value in data set [5] is on record as “not extracted to any significant amount”. Take `S=C(NCc1cccc(CNC(=S)Nc2ccccc2)c1)Nc1ccccc1`: the “solubility in PFPHP” value in data set [1] is “poorly soluble”. Consider `OC(c1cccc(C(O)(C(F)(F)F)C(F)(F)F)c1)(C(F)(F)F)C(F)(F)F`, for which the “solubility in perfluoro(tributylamine)” value in data set [2] was “poorly soluble”. The “solubility in PFPHP” value in data set [1] (setting [9]) is given as “poorly soluble”. Consider “tetrakis-(decyl)ammonium tetraphenylborate”, for which the “log Kip” value in data set [4] (in cyclohexane) is 14.2.

Take `FC(F)(F)C(F)(F)C(F)(F)C(F)(F)C(F)(F)N(C(F)(F)C(F)(F)C(F)(F)C(F)(F)C(F)(F)F)C(F)(F)C(F)(F)C(F)(F)C(F)(F)C(F)(F)F` [perfluorotripentylamine]: the “formal pKa” value in data set [6] is listed as “smaller than −0.5”. The “association with any ion tested” value in data set [6] (inorganic monocations) was “does not undergo measurable association”. As for `CCCCC(CCCC)OC(=O)CCCCCCCCCCOC(=O)Cc1ccc(N=c2cc3oc4cc(N(C)C)ccc4nc-3c3ccccc23)cc1` [Chromoionophroes II], the “solubility in PFPHP” value in data set [1] is given as “poorly soluble”. As for `FC(OC(F)(F)C(F)(OC(F)(F)C(F)(OC(F)(F)C(F)(OC(F)(F)C(F)(F)C(F)(F)F)C(F)(F)F)C(F)(F)F)C(F)(F)F)C(F)(F)F` (centres unmarked) [2H-perfluoro-5,8,11-trimethyl-3,6,9,12-tetraoxapentadecane], the “formal association constant with Na^+” value in data set [7] was 2.3 M⁻¹. In addition, the “formal association constant with Li^+” value in data set [8] was 1.5 M⁻¹. Take `CCCCCCCCCCCC[N+](C)(CCCCCCCCCCCC)CCCCCCCCCCCC.[Cl-]` [tridodecylmethylammonium chloride]: in data set [1], the “solubility in PFPHP” value is reported as “not soluble enough”. The same measure, in the same setting: the same measure for `CCCCCCCCCCCCCCCCCCOC(=O)c1ccncc1` [Hydrogen Ionophre IV]: “poorly soluble”; for `CCCCCCCCC(CCCCCCCC)CN=c1cc2oc3cc(N(CC)CC)ccc3nc-2c2ccccc12` [Chromoionophroes III]: “poorly soluble”. Turning to `CCCC[N+](CCCC)(CCCC)CCCC.F[B-](F)(F)F` [tetrabutyl-ammonium tetrafluoroborate], in data set [4] (in α,α,α-trifluorotoluene), the “log Kip” value was 5.4.
